Source: patent US8012972B2, “Pyridinecarboxylic acid (2-aminophenyl) amide derivative having urea structure” (Santen Pharmaceutical Co., Ltd., priority 2007, dated 2011)

Key:
[1] = test system: HDAC (HeLa nuclear extract); experiment: Test for evaluation of HDAC inhibitory activity (HDAC Fluorimetric Assay/Drug Discovery Kit, Biomol); format: biochemical; details: final concentration of test compound 30 μM, rates of more than 100% are shown as 100%
Experimental: Using HDAC Fluorimetric Assay/Drug Discovery Kit (manufactured by Biomol), HDAC inhibitory activity of the present compounds was measured according to the protocol included with the kit. The kit contains Buffer, HeLa nuclear extract (includes HDAC), Substrate, Developer and Trichostatin A (an HDAC inhibitor).
A test compound was dissolved in dimethyl sulfoxide, whereby a 2 mg/mL solution was prepared. Then, the resulting solution was diluted with Buffer containing 5% dimethyl sulfoxide, whereby a 150 μM test compound solution was prepared.
1) To a 384-well culture plate, the test compound solution was added in an amount of 2 μL per well.
2) HeLa nuclear extract was diluted 30-fold with Buffer. The resulting solution was added in an amount of 3 μL per well and then, incubation was performed at 37° C. for 2 hours.
3) Substrate was diluted 500-fold with Buffer. […]
5) The fluorescence intensity of each well was measured using multilabel counter ARVO (manufactured by Wallac) with excitation at 360 nm and emission at 460 nm. […]
Enzyme inhibitory rate (%) was calculated using the following equation. (Enzyme Inhibitory Rate(%))=100×[1−{(Fluorescence Intensity of Test Compound Solution)−(Florescence Intensity of Blank)}/{(Florescence Intensity of Control)−(Florescence Intensity of Blank)}] […]

[2] = test system: human trabecular meshwork cell line (TM-1 cells); experiment: Effect of morphological change on trabecular meshwork cells (cell shape index, CSI); format: cell-based; details: final concentration 10 μM, 24 hours, control CSI 0.679, lower CSI indicates greater morphological change
Experimental: As a method for evaluating a cellular morphological change, an evaluation system using the cell shape index (hereinafter referred to as “CSI”) as an index has been reported in The Journal of Clinical Investigation, 103, 1141-1150 (1999). Therefore, according to the method described in the above document, an effect of morphological change of the present compounds on trabecular meshwork cells was evaluated.
A human trabecular meshwork cell line (hereinafter referred to as “TM-1 cells”) reported in Investigative Opthalmology & Visual Science, 43, 151-161 (2002) was used.
Culture medium 1: A reagent was prepared by adding fetal bovine serum (10%), L-glutamine (2 mM), amphotericin B (2.5 μg/mL), and gentamicin (25 μg/mL) to Dulbecco's Modified Eagle Medium (hereinafter referred to as “D-MEM”).
Culture medium 2: Fetal bovine serum (3%), L-glutamine (2 mM), amphotericin B (2.5 μg/mL), and gentamicin (25 μg/mL) were added to D-MEM. […]
10) Using Array Scan Vti HCS reader (manufactured by Cellomics), images of stained cells magnified with a 20-fold objective lens were captured in 80 fields (10 fields×8 wells) per test compound addition group.
11) CSI was calculated for each cell and an average value was obtained for each test compound addition group.
CSI was calculated using the following equation. […]

Q: What does the source list for Nc1ccccc1NC(=O)c1ccc(CN(CCCN2CCCCC2)C(=O)NCCc2ccccc2)cn1 [Compound 1-3]?
A: Enzyme Inhibitory Rate (%) [1]: 100%; CSI [2]: 0.569
